Test results published in publication PMC10067855, “Sialidases and fucosidases of Akkermansia muciniphila are crucial for growth on mucin and nutrient sharing with mucus-associated gut bacteria” (Nature Communications, 2023).
pIC50: −log10 of the molar value.

How the values were obtained:
Assay in all cases: inhibition of pNPFuc hydrolysis, A405
Format in all cases: biochemical
[1] = target: T1, AmGH29A (Akkermansia muciniphila, UniProt B2UL68)
T1 construct: gene Amuc_0010; mature peptide lacking the signal peptide
T1 sequence (B2UL68 20-538): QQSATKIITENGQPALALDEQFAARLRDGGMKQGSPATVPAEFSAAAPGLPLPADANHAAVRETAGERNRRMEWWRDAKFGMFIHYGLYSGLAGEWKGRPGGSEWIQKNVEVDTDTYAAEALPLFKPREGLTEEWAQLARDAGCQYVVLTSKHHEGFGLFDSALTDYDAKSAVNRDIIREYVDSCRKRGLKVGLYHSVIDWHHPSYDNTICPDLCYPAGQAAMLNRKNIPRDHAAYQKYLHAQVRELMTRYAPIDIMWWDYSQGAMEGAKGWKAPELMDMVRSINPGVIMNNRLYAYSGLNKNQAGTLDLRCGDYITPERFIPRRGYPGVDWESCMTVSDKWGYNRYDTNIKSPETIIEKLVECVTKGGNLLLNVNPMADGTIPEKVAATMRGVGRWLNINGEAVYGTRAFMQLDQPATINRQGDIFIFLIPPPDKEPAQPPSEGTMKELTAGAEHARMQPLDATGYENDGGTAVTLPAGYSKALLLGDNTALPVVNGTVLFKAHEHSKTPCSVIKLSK

[2] = target: T2, AmGH29B (Akkermansia muciniphila, UniProt B2ULU6)
T2 construct: gene Amuc_0146; mature peptide lacking the signal peptide
T2 sequence (B2ULU6 27-711): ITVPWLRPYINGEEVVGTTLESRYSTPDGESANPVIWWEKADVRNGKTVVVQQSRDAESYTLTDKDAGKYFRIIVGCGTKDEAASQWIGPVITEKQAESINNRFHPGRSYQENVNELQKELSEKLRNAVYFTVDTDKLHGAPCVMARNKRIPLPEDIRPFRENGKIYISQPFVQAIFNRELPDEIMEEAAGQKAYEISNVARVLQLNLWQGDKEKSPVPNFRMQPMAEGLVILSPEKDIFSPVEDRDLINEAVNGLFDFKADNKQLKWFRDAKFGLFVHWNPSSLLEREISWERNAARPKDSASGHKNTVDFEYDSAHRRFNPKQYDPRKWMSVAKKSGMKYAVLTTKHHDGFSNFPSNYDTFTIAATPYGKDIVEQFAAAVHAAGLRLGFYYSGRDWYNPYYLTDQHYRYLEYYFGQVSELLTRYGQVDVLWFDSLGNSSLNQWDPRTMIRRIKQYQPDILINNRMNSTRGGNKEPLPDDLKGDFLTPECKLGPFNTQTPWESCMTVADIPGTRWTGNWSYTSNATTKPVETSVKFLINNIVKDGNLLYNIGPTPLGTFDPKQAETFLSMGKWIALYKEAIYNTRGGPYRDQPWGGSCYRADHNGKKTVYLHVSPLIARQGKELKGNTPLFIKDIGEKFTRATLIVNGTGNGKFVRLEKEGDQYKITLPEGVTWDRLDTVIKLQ

[3] = target: T3, AmGH95B (Akkermansia muciniphila, UniProt B2UR61)
T3 construct: gene Amuc_1120; mature peptide lacking the signal peptide
T3 sequence (B2UR61 23-796): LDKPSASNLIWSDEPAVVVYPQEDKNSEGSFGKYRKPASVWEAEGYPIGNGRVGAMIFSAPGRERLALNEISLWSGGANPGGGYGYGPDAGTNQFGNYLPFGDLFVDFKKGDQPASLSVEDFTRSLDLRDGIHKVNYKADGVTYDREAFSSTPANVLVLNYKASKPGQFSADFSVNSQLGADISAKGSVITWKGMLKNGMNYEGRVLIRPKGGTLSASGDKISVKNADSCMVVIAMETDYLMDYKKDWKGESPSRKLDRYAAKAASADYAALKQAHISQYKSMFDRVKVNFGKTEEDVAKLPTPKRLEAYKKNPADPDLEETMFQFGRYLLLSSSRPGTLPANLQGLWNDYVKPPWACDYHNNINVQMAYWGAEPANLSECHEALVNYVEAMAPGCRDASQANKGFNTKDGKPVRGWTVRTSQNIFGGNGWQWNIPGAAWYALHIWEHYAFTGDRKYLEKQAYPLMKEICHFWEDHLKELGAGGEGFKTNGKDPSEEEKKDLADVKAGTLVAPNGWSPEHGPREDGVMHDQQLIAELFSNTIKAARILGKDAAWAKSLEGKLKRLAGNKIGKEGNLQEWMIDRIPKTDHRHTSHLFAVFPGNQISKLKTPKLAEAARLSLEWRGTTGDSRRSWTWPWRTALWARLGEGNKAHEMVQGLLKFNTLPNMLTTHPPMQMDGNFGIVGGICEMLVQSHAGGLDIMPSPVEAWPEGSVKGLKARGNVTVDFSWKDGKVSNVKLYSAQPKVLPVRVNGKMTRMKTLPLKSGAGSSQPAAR

[4] = target: T4, AmGH95A (Akkermansia muciniphila, UniProt B2UM81)
T4 construct: gene Amuc_0186; mature peptide lacking the signal peptide
T4 sequence (B2UM81 25-788): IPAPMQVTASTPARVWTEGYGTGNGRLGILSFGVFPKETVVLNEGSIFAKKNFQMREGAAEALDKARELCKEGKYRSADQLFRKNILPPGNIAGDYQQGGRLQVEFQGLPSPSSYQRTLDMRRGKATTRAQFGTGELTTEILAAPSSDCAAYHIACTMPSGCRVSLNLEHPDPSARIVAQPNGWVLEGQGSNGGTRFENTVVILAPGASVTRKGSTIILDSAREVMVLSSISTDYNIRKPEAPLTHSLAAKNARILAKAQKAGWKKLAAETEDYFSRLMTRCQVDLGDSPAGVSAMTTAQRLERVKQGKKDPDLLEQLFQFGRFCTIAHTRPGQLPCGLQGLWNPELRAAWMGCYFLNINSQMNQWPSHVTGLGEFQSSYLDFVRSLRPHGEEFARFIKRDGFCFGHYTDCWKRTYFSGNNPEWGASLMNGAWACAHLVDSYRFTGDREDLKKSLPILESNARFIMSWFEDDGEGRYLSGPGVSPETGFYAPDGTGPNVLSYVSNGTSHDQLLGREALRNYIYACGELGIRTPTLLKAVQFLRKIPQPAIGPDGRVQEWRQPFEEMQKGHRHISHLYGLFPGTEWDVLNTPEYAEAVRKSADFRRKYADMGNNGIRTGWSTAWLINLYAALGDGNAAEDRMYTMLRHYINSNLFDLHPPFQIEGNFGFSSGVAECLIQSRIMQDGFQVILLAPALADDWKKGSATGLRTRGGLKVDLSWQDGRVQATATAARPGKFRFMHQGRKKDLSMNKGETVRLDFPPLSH

- pIC50 [1]: > 4.27
- pIC50 [2]: > 4.27
- pIC50 [3]: > 4.27
- pIC50 [4]: > 4.27
Compound: C[C@@H]1NC[C@@H](O)[C@H](O)[C@@H]1O [DFJ, 1-Deoxyfuconojirimycin]
